The values below come from patent publication US10005774B2, “Syk inhibitors” (Gilead Sciences, Inc., priority 2013, dated 2018).

One test concerns the target Syk (Homo sapiens, UniProt P43405). As to the kind of experiment: High Throughput Syk Biochemical Assay (KinEASE TR-FRET). The following applies: TABLE D, 20 μM ATP, 1 μM biotinylated peptide, 0.015 nM Syk, 30 min at room temperature, read-out: IC50. The essentials:
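Compounds in DMSO dilution series were tested against Syk, which phosphorylates an XL665-tagged peptide. The phosphoproduct was bound by Eu-labelled phosphotyrosine antibody in a two-step endpoint format.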
A general note: TR-FRET usually uses a lanthanide donor and a delayed reading to cut background.
As for `COc1ccc(-c2cc3ncn(C)c3c(O[C@H](C)[C@H]3CNC(=O)C3)n2)cc1F` [(R)-4-((R)-1-(6-(3-fluoro-4-methoxyphenyl)-3-methyl-3H-imidazo[4,5-c]pyridin-4-yloxy)ethyl)pyrrolidin-2-one], the IC50 (usually the concentration that gives 50% inhibition) came to 17.2 nM. In the case of `C[C@@H](Oc1nc(-c2ccc3c(c2)NCCO3)cc2ncn(C)c12)[C@H]1CNC(=O)C1` [(R)-4-((R)-1-(6-(3,4-dihydro-2H-benzo[b][1,4]oxazin-6-yl)-3-methyl-3H-imidazo[4,5-c]pyridin-4-yloxy)ethyl)pyrrolidin-2-one], the IC50 was 4.03 nM. On to `COc1ccc(-c2cc3ncn(C(F)F)c3c(O[C@H](C)[C@H]3CNC(=O)C34CC4)n2)cc1OC` [(R)-7-((R)-1-((3-(difluoromethyl)-6-(3,4-dimethoxyphenyl)-3H-imidazo[4,5-c]pyridin-4-yl)oxy)ethyl)-5-azaspiro[2.4]heptan-4-one], for which the half-maximal inhibitory concentration (IC50) worked out at 38 nM.

As for `C[C@@H](Oc1nc(-c2cnn(C(C)(C)C)c2)cc2ncn(C(F)F)c12)[C@H]1CNC(=O)C1` [(R)-4-((R)-1-(6-(1-tert-butyl-1H-pyrazol-4-yl)-3-(difluoromethyl)-3H-imidazo[4,5-c]pyridin-4-yloxy)ethyl)pyrrolidin-2-one], the IC50 worked out at 1.22 nM.

As to `C[C@@H](Oc1nc(-c2cnn(CC(F)(F)F)c2)cc2ncn(C)c12)[C@H]1CNC(=O)C1` [(R)-4-((R)-1-(3-methyl-6-(1-(2,2,2-trifluoroethyl)-1H-pyrazol-4-yl)-3H-imidazo[4,5-c]pyridin-4-yloxy)ethyl)pyrrolidin-2-one], the half-inhibitory concentration (IC50) was 20.8 nM. As for `COc1ccc(-c2cc3nc(C)n(C(F)F)c3c(O[C@H](C)[C@H]3CNC(=O)C3)n2)cc1OC` [(R)-4-((R)-1-(3-(difluoromethyl)-6-(3,4-dimethoxyphenyl)-2-methyl-3H-imidazo[4,5-c]pyridin-4-yloxy)ethyl)pyrrolidin-2-one], the IC50 amounted to 50.8 nM. With `COc1ccc(-c2cc3nc(C)n(C)c3c(O[C@H](C)[C@H]3CNC(=O)C3)n2)cc1OC` [(4R)-4-((1R)-1-(6-(3,4-dimethoxyphenyl)-2,3-dimethyl-3a,7a-dihydro-3H-imidazo[4,5-c]pyridin-4-yloxy)ethyl)pyrrolidin-2-one], the IC50 was determined as 25.4 nM.

For `COc1ccc(-c2cc3nc(C)n(C4CC4)c3c(O[C@H](C)[C@H]3CNC(=O)C3)n2)cc1OC` [(R)-4-((R)-1-(3-cyclopropyl-6-(3,4-dimethoxyphenyl)-2-methyl-3H-imidazo[4,5-c]pyridin-4-yloxy)ethyl)pyrrolidin-2-one], the IC50 came out at 95.8 nM. In the case of `COc1ccc(-c2cc3ncn(CC(F)F)c3c(O[C@H](C)[C@H]3CNC(=O)C3)n2)cc1OC` [(R)-4-((R)-1-(3-(2,2-difluoroethyl)-6-(3,4-dimethoxyphenyl)-3H-imidazo[4,5-c]pyridin-4-yloxy)ethyl)pyrrolidin-2-one], the 50% inhibitory concentration (IC50) was 19.5 nM. In the case of `C[C@@H](Oc1nc(-c2ccc(N3CCOCC3)cc2)cc2ncn(C)c12)[C@H]1CNC(=O)C1` [(R)-4-((R)-1-(3-methyl-6-(4-morpholinophenyl)-3H-imidazo[4,5-c]pyridin-4-yloxy)ethyl)pyrrolidin-2-one], the IC50 amounted to 4.6 nM. With `C[C@@H](Oc1nc(-c2ccc3c(cnn3C)c2)cc2ncn(C)c12)[C@H]1CNC(=O)C1` [(R)-4-((R)-1-((3-methyl-6-(1-methyl-1H-indazol-5-yl)-3H-imidazo[4,5-c]pyridin-4-yl)oxy)ethyl)pyrrolidin-2-one], the IC50 was determined as 9.62 nM. With `C[C@@H](Oc1cc(-c2cnn(C3CCOCC3)c2)cc2ncsc12)[C@H]1CNC(=O)C1` (stereo in doubt) [(R)-4-((R)-1-((5-(1-(tetrahydro-2H-pyran-4-yl)-1H-pyrazol-4-yl)benzo[d]thiazol-7-yl)oxy)ethyl)pyrrolidin-2-one], the 50% inhibitory concentration (IC50) stood at 0.699 nM. As to `COc1ccc(-c2cc3ncn(C)c3c(O[C@H](C)[C@H]3CNC(=O)C3)n2)cn1` [(R)-4-((R)-1-(6-(6-methoxypyridin-3-yl)-3-methyl-3H-imidazo[4,5-c]pyridin-4-yloxy)ethyl)pyrrolidin-2-one], the IC50 worked out at 71.7 nM. The same measure, in the same setting: the figure for `COc1ccc(-c2cc(O[C@H](C)[C@H]3CNC(=O)C3)c3c(c2)ncn3C)cc1OC` [(R)-4-((R)-1-((5-(3,4-dimethoxyphenyl)-1-methyl-1H-benzo[d]imidazol-7-yl)oxy)ethyl)pyrrolidin-2-one] is 38.2 nM; for `C[C@@H](Oc1nc(-c2cnn(CC(F)F)c2)cc2ncn(C(F)F)c12)[C@H]1CNC(=O)C1` [(R)-4-((R)-1-(6-(1-(2,2-difluoroethyl)-1H-pyrazol-4-yl)-3-(difluoromethyl)-3H-imidazo[4,5-c]pyridin-4-yloxy)ethyl)pyrrolidin-2-one] it is 3.31 nM. `Cc1cnn2cc(-c3ccc(N4CCOCC4)cc3)nc(O[C@H](C)[C@H]3CNC(=O)C3)c12` [(R)-4-((R)-1-((3-methyl-6-(4-morpholinophenyl)pyrazolo[1,5-a]pyrazin-4-yl)oxy)ethyl)pyrrolidin-2-one]: the IC50 stood at 0.377 nM.

The test is the same for the next values; noted with them: table 'ALL NEW COMPOUNDS IN 2014', 20 μM ATP, 1 μM biotinylated peptide, 0.015 nM Syk, 30 min at room temperature, read-out: Syk IC50.
For the molecule `C[C@@H](Oc1nc(-c2ccc(N3CCN(S(C)(=O)=O)CC3)c(F)c2)cc2ncn(C3CC3)c12)[C@H]1CNC(=O)C1` [(R)-4-((R)-1-((3-cyclopropyl-6-(3-fluoro-4-(4-(methylsulfonyl)piperazin-1-yl)phenyl)-3H-imidazo[4,5-c]pyridin-4-yl)oxy)ethyl)pyrrolidin-2-one], the IC50 stood at 2.02 nM. Consider `C[C@@H](Oc1cc(-c2ccc(N3CCC(C4COC4)CC3)cn2)cc2ncn(C3CC3)c12)[C@H]1CNC(=O)C1` [(R)-4-((R)-1-((1-cyclopropyl-5-(5-(4-(oxetan-3-yl)piperidin-1-yl)pyridin-2-yl)-1H-benzo[d]imidazol-7-yl)oxy)ethyl)pyrrolidin-2-one], for which the IC50 was determined as 4.65 nM. For `Cc1nc(-c2cc(O[C@H](C)[C@H]3CNC(=O)C3)c3c(c2)ncn3C2CC2)cn1C` [(R)-4-((R)-1-((1-cyclopropyl-5-(1,2-dimethyl-1H-imidazol-4-yl)-1H-benzo[d]imidazol-7-yl)oxy)ethyl)pyrrolidin-2-one], the IC50 was 6.07 nM. The same measure, in the same setting: to `C[C@@H](Oc1nc(-c2ccc(N3CC4CC(C3)N4C3COC3)cc2)cc2ncn(C3CC3)c12)[C@H]1CNC(=O)C1` [(4R)-4-((1R)-1-((3-cyclopropyl-6-(4-(6-(oxetan-3-yl)-3,6-diazabicyclo[3.1.1]heptan-3-yl)phenyl)-3H-imidazo[4,5-c]pyridin-4-yl)oxy)ethyl)pyrrolidin-2-one] belongs 2.69 nM; to `C[C@@H](Oc1cc(-c2ccc(N3CCN(C4COC4)CC3)nc2)cc2ncn(C3CC3)c12)[C@H]1CNC(=O)C1` [(R)-4-((R)-1-((1-cyclopropyl-5-(6-(4-(oxetan-3-yl)piperazin-1-yl)pyridin-3-yl)-1H-benzo[d]imidazol-7-yl)oxy)ethyl)pyrrolidin-2-one], 7.38 nM.

Take `C[C@@H](Oc1nc(-c2ccc3c(c2)N(C)C(=O)OC3(C)C)cc2ncn(C)c12)[C@H]1CNC(=O)C1` [1,4,4-trimethyl-7-(3-methyl-4-((R)-1-((R)-5-oxopyrrolidin-3-yl)ethoxy)-3H-imidazo[4,5-c]pyridin-6-yl)-1H-benzo[d][1,3]oxazin-2(4H)-one]: the IC50 came out at 2.5 nM.

Consider `C[C@@H](Oc1cc(-c2ccc3c(c2)NCCN3C)cc2ncn(C3CC3)c12)[C@H]1CNC(=O)C1` [(R)-4-((R)-1-((1-cyclopropyl-5-(1-methyl-1,2,3,4-tetrahydroquinoxalin-6-yl)-1H-benzo[d]imidazol-7-yl)oxy)ethyl)pyrrolidin-2-one], for which the half-maximal inhibitory concentration (IC50) was determined as 3.83 nM. Consider `CCOc1cc(-c2cc3ncn(C4CC4)c3c(O[C@H](C)[C@H]3CNC(=O)C3)n2)ccc1OC` [(R)-4-((R)-1-((3-cyclopropyl-6-(3-ethoxy-4-methoxyphenyl)-3H-imidazo[4,5-c]pyridin-4-yl)oxy)ethyl)pyrrolidin-2-one], for which the IC50 stood at 2.92 nM. Turning to `Cc1nc(-c2cc(O[C@H](C)[C@H]3CNC(=O)C3)c3c(c2)ncn3C2CC2)cs1` [(R)-4-((R)-1-((1-cyclopropyl-5-(2-methylthiazol-4-yl)-1H-benzo[d]imidazol-7-yl)oxy)ethyl)pyrrolidin-2-one], the IC50 was found to be 16.7 nM. For the molecule `C[C@@H](Oc1nc(-c2ccc3c(c2)n(C)c(=O)n3C)cc2ncn(C3CC3)c12)[C@H]1CNC(=O)C1`, the 50% inhibitory concentration (IC50) turned out to be 4.84 nM. Take `C[C@@H](Oc1nc(-c2cnn(-c3ccncc3)c2)cc2ncn(C3CC3)c12)[C@H]1CNC(=O)C1`: the IC50 came out at 8.29 nM.

`COc1cc(-c2cc3ncn(C4CC4)c3c(O[C@H](C)[C@H]3CNC(=O)C3)n2)ccc1OC(F)F` [(R)-4-((R)-1-((3-cyclopropyl-6-(4-(difluoromethoxy)-3-methoxyphenyl)-3H-imidazo[4,5-c]pyridin-4-yl)oxy)ethyl)pyrrolidin-2-one]: the half-maximal inhibitory concentration (IC50) was 5.22 nM. With `C[C@@H](Oc1nc(-c2ccc(N3CC(N4CCOCC4)C3)cc2)cc2ncn(C3CC3)c12)[C@H]1CNC(=O)C1` [(R)-4-((R)-1-((3-cyclopropyl-6-(4-(3-morpholinoazetidin-1-yl)phenyl)-3H-imidazo[4,5-c]pyridin-4-yl)oxy)ethyl)pyrrolidin-2-one], the IC50 was 5.69 nM.

Consider `C[C@@H](Oc1cc(-c2cnn(C(C)(C)CO)c2)cc2ncn(C3CC3)c12)[C@H]1CNC(=O)C1` [(R)-4-((R)-1-((1-cyclopropyl-5-(1-(1-hydroxy-2-methylpropan-2-yl)-1H-pyrazol-4-yl)-1H-benzo[d]imidazol-7-yl)oxy)ethyl)pyrrolidin-2-one], for which the half-maximal inhibitory concentration (IC50) stood at 1.99 nM. As for `COc1cc(-c2cc3ncn(C4CC4)c3c(O[C@H](C)[C@H]3CNC(=O)C3)n2)ccc1OCC(F)F` [(R)-4-((R)-1-((3-cyclopropyl-6-(4-(2,2-difluoroethoxy)-3-methoxyphenyl)-3H-imidazo[4,5-c]pyridin-4-yl)oxy)ethyl)pyrrolidin-2-one], the concentration for half-maximal inhibition (IC50) is 2.78 nM. As to `C[C@@H](Oc1cc(-c2ccccc2)cc2ncn(C3CC3)c12)[C@H]1CNC(=O)C1` [(R)-4-((R)-1-((1-cyclopropyl-5-phenyl-1H-benzo[d]imidazol-7-yl)oxy)ethyl)pyrrolidin-2-one], the IC50 is 18 nM.
